Assay results from patent publication US20230338336A1, “METHODS OF TREATING CONDITIONS RELATED TO THE S1P1 RECEPTOR” (Arena Pharmaceuticals, Inc., priority 2020, published 2023).

What was measured:
[1] = tested on: human full thickness scalp skin / hair follicles; experiment: Human full thickness scalp skin model, AA-like inflammatory environment, with and without IFNγ (ex vivo); format: cell-based
Experimental: To evaluate the effects of Compound 1 on hair follicle physiology and pathology in an AA-like inflammatory environment, a human full thickness scalp skin model was used. Scalp biopsies from two healthy donors were cultured ex vivo and treated with tofacitinib (400 nM) and Compound 1 (10 nM, 100 nM, 1000 nM) in the presence and absence of IFNγ, a key pathological cytokine involved in AA development. 5 mm skin cubes with hair were acquired from a donor (Donor 1) and a donor (Donor 2). Ten groups were tested with one skin punch per group: 1. Vehicle (DMSO control) 2. Tofacitinib (400 nM), 3. 10 nM Compound 1, 4. 100 nM Compound 1 5. 1 μM Compound 1, 6. Vehicle (DMSO control)+100 IU IFNγ, 7. Tofacitinib (400 nM)+100 IU IFNγ, 8. 10 nM Compound 1+100 IU IFNγ, 9. 100 nM Compound 1+100 IU IFNγ 10. 1 μM Compound 1+100 IU IFNγ. On Day 0, isolation of 10×6mm punches with hair was performed. On Days 1, 3, and 5 the medium was changed and treatment with groups 1-10 occurred. Days 2 and 4 were rest days. On Day 6, the culture was closed and embedded in OCT Compound for further microscopic analysis.

[2] = Safety and tolerability in clinical studies (Phase 1, healthy adult subjects); format: in vivo, human; conditions: approximately 281 adult subjects, various doses; single doses up to 5 mg, repeated doses up to 4 mg QD
Experimental: (§1) Compound 1, or a pharmaceutically acceptable salt, solvate, or hydrate thereof, is an orally administered, selective, synthetic sphingosine 1-phosphate (S1P) receptor 1, 4, 5 modulator. […] Its safety and tolerability have been evaluated in Phase 1 studies with healthy adult subjects at single doses up to 5 mg and repeated doses up to 4 mg once daily (QD).

[3] = tested on: microdissected human scalp hair follicles (HF); experiment: Hair follicle organ culture model, non-inflammatory condition (ex vivo); format: cell-based
Experimental: A hair follicle organ culture model was used to analyze the direct effects of Compound 1 on HF physiology in a non-inflammatory condition. Human full thickness scalp skin from four healthy donors was cultured ex vivo and treated in four groups with 11 HF's per groups: 1. vehicle (DMSO control), 2. 10 nM Compound 1, 3. 100 nM Compound 1, 4. 1 μM Compound 1. Before treatment began, […] full length microdissected HF's were isolated, pictures and length measurements were taken of the HF's, and the HF's were cultured in WCM. On Days 1, 3, and 5 pictures of HF elongation were taken, the medium was changed, and treatment in groups 1-4 occurred. Days 2 and 4 were rest days. Additionally, on Day 2 three HF's per group were frozen for RNAseq twenty-four hours after the previous day's treatment. On Day 6, pictures were taken of the HF elongation, the culture was closed, and 8 HF's per group were embedded in optimal cutting temperature compound (OCT compound) for further microscopic immunohistological analysis.

[4] = Phase 2 dose-ranging study in UC patients and open-label extension; format: in vivo, human; conditions: UC patients
Experimental: as §1

MICA expression (stress signal) ([3]; 100 nM, anagen and catagen HFs combined and anagen HFs alone (FIG. 9)): significantly reduced
SMILES: O=C(O)C[C@H]1CCc2c1[nH]c1ccc(OCc3ccc(C4CCCC4)c(C(F)(F)F)c3)cc21 [Compound 1, (R)-2-(7-(4-cyclopentyl-3-(trifluoromethyl)benzyloxy)-1,2,3,4-tetrahydrocyclopenta[b]indol-3-yl)acetic acid]
IFNγ-mediated MHC-I up-regulation in the dermal cup of the hair follicle ([1]; +100 IU IFNγ (FIG. 11)): prevented
Hair cycle staging / hair cycle score (anagen) ([1]; Donor 1, without IFNγ (FIG. 10)): tendentially prolonged anagen
Increase of CD8-S1P1+ cells showing lymphocytic morphology ([1]; Donor 2 (FIG. 12)): prevented
Increase of perifollicular CD8+ cells showing lymphocytic morphology ([1]; Donor 2 (FIG. 12)): prevented
Safety and tolerability [2]: safe and well-tolerated
Hair cycle staging / hair cycle score (anagen phase) ([3]; 10 nM and 100 nM, 6-day HF organ culture, vs vehicle (FIG. 7)): tendentially prolonged the anagen phase
RNAseq: genes involved in hair keratinization ([3]; 10 nm and 100 nm groups, HFs frozen 24 h after treatment): significant up-regulation
MHC class I (MHC-I) expression in dermal cup, germinative hair matrix, outer root sheath ([3]; anagen and catagen HFs combined and anagen HFs alone (FIGS. 8a, 8b)): no change
Endoscopic and symptomatic improvements versus placebo ([4]; 2 mg QD for 12 weeks): clinically meaningful and statistically significant
Duration of beneficial effects in open-label extension study ([4]; up to 46 weeks): Sustained beneficial effects
